Here are results for 16 compounds from patent US10294218B2 (VIROSTATICS SRL, priority 2012, dated 2019).

This data set relates to laboratory strain of HIV-1. As to the kind of experiment: Antiviral activity against HIV (AV), p24 in infected activated primary T cells. The class given is cell-based. The note with it: for IC50: Human immunodeficiency virus 1, T-cell, read-out: AV50 (Inhibitory concentration 50% for antiviral activity); for antiviral and antiproliferative activity and cytotoxicity profile (in words): summary of AV, AP and cytotoxicity assays. The protocol: Activated primary T cells are infected with a laboratory strain of HIV-1, then cultured and exposed to different concentrations of the test compounds. HIV replication is analysed by measuring the viral protein p24 and expressed as percentage of untreated control. Inhibition of viral replication (AV) is then calculated (AV=100 minus the % p24 compared to control, AV of control=0%). Inhibitory concentration 50% for antiviral activity (AV50) is calculated.
In Tables 2, 3 and 4, ND means Not Determined.

As to `COc1ccc(Nc2cc(-c3ccc(F)cc3OC)ncn2)cc1O` [Example 123, 5-[6-(4-Fluoro-2-methoxy-phenyl)-pyrimidin-4-ylamino]-2-methoxy-phenol], the IC50 is 0.05 µM; the “antiviral and antiproliferative activity and cytotoxicity profile (in words)” value is “good antiviral and antiproliferative activity and a good cytotoxicity profile”.
`CCOc1cc(F)ccc1-c1cc(Nc2ccc(OC)c(C(N)=O)c2)ncn1` [Example 130, 5-[6-(2-Ethoxy-4-fluoro-phenyl)-pyrimidin-4-ylamino]-2-methoxy-benzamide]: the IC50 worked out at 0.016 µM; the “antiviral and antiproliferative activity and cytotoxicity profile (in words)” value was “good antiviral and antiproliferative activity and a good cytotoxicity profile”.
`COc1ccc(Nc2cc(-c3ccccc3O)ncn2)cc1N` [Example 70, 2-[6-(3-Amino-4-methoxy-phenylamino)-pyrimidin-4-yl]-phenol]: the IC50 is > 10 µM.
Same read-out and setting: then `COc1cc(F)ccc1-c1cc(Nc2cc(N)c(OC)c(F)c2)ncn1` [Example 90, 5-Fluoro-N^1-[6-(4-fluoro-2-methoxy-phenyl)-pyrimidin-4-yl]-4-methoxy-benzene-1,3-diamine], with > 0.4 µM; and `COc1cccc(-c2cc(Nc3ccc(OC)c(N)c3)ncn2)c1` [Example 68, 4-Methoxy-N^1-[6-(3-methoxy-phenyl)-pyrimidin-4-yl]-benzene-1,3-diamine], with 1 µM.
Take `COc1ccc(Nc2cc(-c3cccc(F)c3OC)ncn2)cc1N` [Example 81, N^1-[6-(3-Fluoro-2-methoxy-phenyl)-pyrimidin-4-yl]-4-methoxy-benzene-1,3-diamine]: the IC50 is 0.06 µM.
In the case of `CCOc1cc(F)ccc1-c1cc(Nc2cc(F)c(OC)c(C(N)=O)c2)ncn1` [Example 139, 5-[6-(2-Ethoxy-4-fluoro-phenyl)-pyrimidin-4-ylamino]-3-fluoro-2-methoxy-benzamide], the IC50 is 0.4 µM.
Regarding `CCOc1ccc(Nc2cc(-c3ccccc3OC)ncn2)cc1N` [Example 101, 4-Ethoxy-N^1-[6-(2-methoxy-phenyl)-pyrimidin-4-yl]-benzene-1,3-diamine], the IC50 turned out to be 0.06 µM.
Regarding `COc1ccc(F)cc1-c1cc(Nc2cc(F)c(OC)c(C(N)=O)c2)ncn1` [Example 140, 3-Fluoro-5-[6-(5-fluoro-2-methoxy-phenyl)-pyrimidin-4-ylamino]-2-methoxy-benzamide], the IC50 was > 0.4 µM.
For the compound `CCOc1ccc(Nc2cc(-c3ccc(F)cc3OC)ncn2)cc1N` [Example 105, 4-Ethoxy-N^1-[6-(4-fluoro-2-methoxy-phenyl)-pyrimidin-4-yl]-benzene-1,3-diamine], the IC50 amounted to 0.016 µM.
As for `COc1ccc(Nc2cc(-c3ccccc3Oc3ccccc3)ncn2)cc1N` [Example 77, 4-Methoxy-N^1-[6-(2-phenoxy-phenyl)-pyrimidin-4-yl]-benzene-1,3-diamine], the IC50 came out at 10 µM.
`COc1cc(F)c(Nc2cc(-c3ccccc3OC)ncn2)cc1N` [Example 92, 4-Fluoro-6-methoxy-N^3-[6-(2-methoxy-phenyl)-pyrimidin-4-yl]-benzene-1,3-diamine]: the IC50 was found to be 0.25 µM.
Same read-out and setting: then `COC(=O)c1ccc(Nc2cc(-c3ccccc3OC)ncn2)cc1OC` [Example 133, 2-Methoxy-4-[6-(2-methoxy-phenyl)-pyrimidin-4-ylamino]-benzoic Acid Methyl Ester], with 7 µM; and `COc1ccc(Nc2cc(-c3ccccc3OCc3ccccc3)ncn2)cc1N` [Example 71, N^1-[6-(2-Benzyloxy-phenyl)-pyrimidin-4-yl]-4-methoxy-benzene-1,3-diamine], with 2 µM.
Regarding `COc1ccccc1-c1cc(Nc2cc(N)c(OC)c(F)c2)ncn1` [Example 88, 5-Fluoro-4-methoxy-N^1-[6-(2-methoxy-phenyl)-pyrimidin-4-yl]-benzene-1,3-diamine], the IC50 was > 0.4 µM.
As for `CCOc1ccc(F)cc1-c1cc(Nc2cc(C(N)=O)c(OC)cc2F)ncn1` [Example 148, 5-[6-(2-Ethoxy-5-fluoro-phenyl)-pyrimidin-4-ylamino]-4-fluoro-2-methoxy-benzamide], the IC50 was < 0.08 µM.
